# From patent US9914731B2, “Pyrazolo[1,5-a]pyridine derivatives and methods of their use” (Ignyta, Inc., priority 2013, dated 2018)
# Assays:
# [1] = molecular target: recombinant human baculovirus-expressed AXL (Homo sapiens (Human), UniProt P30530); assay: AXL kinase assay (HTRF KinEASE); format: biochemical; conditions: average of two or more determinations
# [2] = molecular target: recombinant human baculovirus-expressed cMET (Homo sapiens (Human), UniProt P08581); assay: c-MET kinase assay (HTRF KinEASE); format: biochemical; conditions: average of two or more determinations; read-out: c-MET IC50
SMILES,IC50 [1],IC50 [2]
"O=C(Nc1ccc(Oc2cc(N3CCOCC3)cn3nccc23)c(F)c1)c1cccn(-c2ccc(F)cc2)c1=O [Example 56, 1-(4-Fluoro-phenyl)-2-oxo-1,2-dihydro-pyridine-3-carboxylic acid[3-fluoro-4-(6-morpholin-4-yl-pyrazolo[1,5-a]pyridin-4-yloxy)-phenyl]-amide]",< 10 nM,< 10 nM
"Cc1ccc(C(=O)Nc2ccc(Oc3cc(N4CCC(=O)CC4)cn4nccc34)c(F)c2)c(=O)n1-c1ccc(F)cc1 [Example 59, 1-(4-Fluoro-phenyl)-6-methyl-2-oxo-1,2-dihydro-pyridine-3-carboxylic acid {3-fluoro-4-[6-(4-oxo-piperidin-1-yl)-pyrazolo[1,5-a]pyridin-4-yloxy]-phenyl}-amide]",< 10 nM,10 to 100 nM
"CC(C)n1cc(C(=O)Nc2ccc(Oc3cc(N4CCOCC4)cn4nccc34)c(F)c2)c(=O)n(-c2ccc(F)cc2)c1=O [Example 62, 3-(4-Fluoro-phenyl)-1-isopropyl-2,4-dioxo-1,2,3,4-tetrahydro-pyrimidine-5-carboxylic acid[3-fluoro-4-(6-morpholin-4-yl-pyrazolo[1,5-a]pyridin-4-yloxy)-phenyl]-amide]",< 10 nM,< 10 nM
"O=C(Nc1ccc(Oc2cc(N3CCC(O)CC3)cn3nccc23)c(F)c1)c1cccn(-c2ccc(F)cc2)c1=O [Example 68, 1-(4-Fluoro-phenyl)-2-oxo-1,2-dihydro-pyridine-3-carboxylic acid{3-fluoro-4-[6-(4-hydroxy-piperidin-1-yl)-pyrazolo[1,5-a]pyridin-4-yloxy]-phenyl}-amide]",< 10 nM,< 10 nM
"Cn1cc(Nc2cc(Oc3ccc(NC(=O)c4cccn(-c5ccc(F)cc5)c4=O)cc3F)c3ccnn3c2)cn1 [Example 79, 1-(4-Fluoro-phenyl)-2-oxo-1,2-dihydro-pyridine-3-carboxylic acid {3-fluoro-4-[6-(1-methyl-1H-pyrazol-4-ylamino)-pyrazolo[1,5-a]pyridin-4-yloxy]-phenyl}-amide]",< 10 nM,< 10 nM
"Cn1cnc(-c2cc(Oc3ccc(NC(=O)c4cccn(-c5ccc(F)cc5)c4=O)cc3F)c3ccnn3c2)c1 [Example 88, 1-(4-Fluoro-phenyl)-2-oxo-1,2-dihydro-pyridine-3-carboxylic acid {3-fluoro-4-[6-(1-methyl-1H-imidazol-4-yl)-pyrazolo[1,5-a]pyridin-4-yloxy]-phenyl}-amide]",< 10 nM,< 10 nM
"Cc1ccc(C(=O)Nc2ccc(Oc3cc(-c4cn(C)cn4)cn4nccc34)c(F)c2)c(=O)n1-c1ccc(F)cc1 [Example 91, 1-(4-Fluoro-phenyl)-6-methyl-2-oxo-1,2-dihydro-pyridine-3-carboxylic acid {3-fluoro-4-[6-(1-methyl-1H-imidazol-4-yl)-pyrazolo[1,5-a]pyridin-4-yloxy]-phenyl}-amide]",< 10 nM,< 10 nM
"CCn1cc(C(=O)Nc2ccc(Oc3cc(-c4cn(C)cn4)cn4nccc34)c(F)c2)c(=O)n(-c2ccc(F)cc2)c1=O [Example 93, 1-Ethyl-3-(4-fluoro-phenyl)-2,4-dioxo-1,2,3,4-tetrahydro-pyrimidine-5-carboxylic acid {3-fluoro-4-[6-(1-methyl-1H-imidazol-4-yl)-pyrazolo[1,5-a]pyridin-4-yloxy]-phenyl}-amide]",< 10 nM,< 10 nM
"CC(C)n1cc(C(=O)Nc2ccc(Oc3cc(-c4cn(C)cn4)cn4nccc34)c(F)c2)c(=O)n(-c2ccc(F)cc2)c1=O [Example 94, 3-(4-Fluoro-phenyl)-1-isopropyl-2,4-dioxo-1,2,3,4-tetrahydro-pyrimidine-5-carboxylic acid {3-fluoro-4-[6-(1-methyl-1H-imidazol-4-yl)-pyrazolo[1,5-a]pyridin-4-yloxy]-phenyl}-amide]",< 10 nM,< 10 nM
"Cn1cnc(-c2cc(Oc3ccc(NC(=O)c4cn(C)c(=O)n(-c5ccc(F)cc5)c4=O)cc3F)c3ccnn3c2)c1 [Example 95, 3-(4-Fluoro-phenyl)-1-methyl-2,4-dioxo-1,2,3,4-tetrahydro-pyrimidine-5-carboxylic acid{3-fluoro-4-[6-(1-methyl-1H-imidazol-4-yl)-pyrazolo[1,5-a]pyridin-4-yloxy]-phenyl}-amide]",< 10 nM,< 10 nM
"Cn1cnc(-c2cc(Oc3ccc(NC(=O)c4cn(CCOCc5ccccc5)c(=O)n(-c5ccc(F)cc5)c4=O)cc3F)c3ccnn3c2)c1 [Example 96, 1-(2-Benzyloxy-ethyl)-3-(4-fluoro-phenyl-)-2,4-dioxo-1,2,3,4-tetrahydro-pyrimidine-5-carboxylic acid{3-fluoro-4-[6-(1-methyl-1H-imidazol-4-yl)-pyrazolo[1,5-a]pyridin-4-yloxy]-phenyl}-amide]",< 10 nM,10 to 100 nM
"CCn1cc(C(=O)Nc2ccc(Oc3cc(-c4cscn4)cn4nccc34)c(F)c2)c(=O)n(-c2ccc(F)cc2)c1=O [Example 101, 1-Ethyl-3-(4-fluoro-phenyl)-2,4-dioxo-1,2,3,4-tetrahydro-pyrimidine-5-carboxylic acid[3-fluoro-4-(6-thiazol-4-yl-pyrazolo[1,5-a]pyridin-4-yloxy)-phenyl]-amide]",< 10 nM,< 10 nM
"O=C(Nc1ccc(Oc2cc(-c3cscn3)cn3nccc23)c(F)c1)c1cccn(-c2ccc(F)cc2)c1=O [Example 102, 1-(4-Fluoro-phenyl)-2-oxo-1,2-dihydro-pyridine-3-carboxylic acid[3-fluoro-4-(6-thiazol-4-yl-pyrazolo[1,5-a]pyridin-4-yloxy)-phenyl]-amide]",< 10 nM,< 10 nM
"CC(C)n1cc(C(=O)Nc2ccc(Oc3cc(-c4cncs4)cn4nccc34)c(F)c2)c(=O)n(-c2ccc(F)cc2)c1=O [Example 103, 3-(4-Fluoro-phenyl)-1-isopropyl-2,4-dioxo-1,2,3,4-tetrahydro-pyrimidine-5-carboxylic acid[3-fluoro-4-(6-thiazol-5-yl-pyrazolo[1,5-a]pyridin-4-yloxy)-phenyl]-amide]",< 10 nM,< 10 nM
"CCn1cc(C(=O)Nc2ccc(Oc3cc(-c4cncs4)cn4nccc34)c(F)c2)c(=O)n(-c2ccc(F)cc2)c1=O [Example 104, 1-Ethyl-3-(4-fluoro-phenyl)-2,4-dioxo-1,2,3,4-tetrahydro-pyrimidine-5-carboxylic acid[3-fluoro-4-(6-thiazol-5-yl-pyrazolo[1,5-a]pyridin-4-yloxy)-phenyl]-amide]",< 10 nM,< 10 nM
"Cn1cnc(-c2cc(Oc3ccc(NC(=O)c4c[nH]c(=O)n(-c5ccc(F)cc5)c4=O)cc3F)c3ccnn3c2)c1 [Example 107, 3-(4-Fluoro-phenyl)-2,4-dioxo-1,2,3,4-tetrahydro-pyrimidine-5-carboxylic acid{3-fluoro-4-[6-(1-methyl-1H-imidazol-4-yl)-pyrazolo[1,5-a]pyridin-4-yloxy]-phenyl}-amide]",< 10 nM,< 10 nM
"Cc1cc(NC(=O)c2cn(C(C)C)c(=O)n(-c3ccc(F)cc3)c2=O)ccc1Oc1cc(-c2cn(C)cn2)cn2nccc12 [Example 110, 3-(4-Fluoro-phenyl)-1-isopropyl-2,4-dioxo-1,2,3,4-tetrahydro-pyrimidine-5-carboxylic acid{3-methyl-4-[6-(1-methyl-1H-imidazol-4-yl)-pyrazolo[1,5-a]pyridin-4-yloxy]-phenyl}-amide]",< 10 nM,10 to 100 nM
"CCn1cc(C(=O)Nc2ccc(Oc3cc(-c4cn(C)cn4)cn4nccc34)cc2)c(=O)n(-c2ccc(F)cc2)c1=O [Example 113, 1-Ethyl-3-(4-fluoro-phenyl)-2,4-dioxo-1,2,3,4-tetrahydro-pyrimidine-5-carboxylic acid {4-[6-(1-methyl-1H-imidazol-4-yl)-pyrazolo[1,5-a]pyridin-4-yloxy]-phenyl}-amide]",< 10 nM,< 10 nM
"CC(C)n1cc(C(=O)Nc2ccc(Oc3cc(-c4cn(C)cn4)cn4nccc34)cc2)c(=O)n(-c2ccc(F)cc2)c1=O [Example 114, 3-(4-Fluoro-phenyl)-1-isopropyl-2,4-dioxo-1,2,3,4-tetrahydro-pyrimidine-5-carboxylic acid{4-[6-(1-methyl-1H-imidazol-4-yl)-pyrazolo[1,5-a]pyridin-4-yloxy]-phenyl}-amide]",< 10 nM,< 10 nM
"CC(C)n1cc(C(=O)Nc2ccc(Oc3cc(-c4cn(C)cn4)cn4nccc34)cn2)c(=O)n(-c2ccc(F)cc2)c1=O [Example 124, 3-(4-Fluoro-phenyl)-1-isopropyl-2,4-dioxo-1,2,3,4-tetrahydro-pyrimidine-5-carboxylic acid {5-[6-(1-methyl-1H-imidazol-4-yl)-pyrazolo[1,5-a]pyridin-4-yloxy]-pyridin-2-yl}-amide]",< 10 nM,< 10 nM
"CCn1nc(C(=O)Nc2ccc(Oc3cc(-c4cn(C)cn4)cn4nccc34)c(F)c2)c(=O)n(-c2ccc(F)cc2)c1=O [Example 128, 2-Ethyl-4-(4-fluoro-phenyl)-3,5-dioxo-2,3,4,5-tetrahydro-1,2,4-triazine-6-carboxylic acid {3-fluoro-4-[6-(1-methyl-1H-imidazol-4-yl)-pyrazolo[1,5-a]pyridin-4-yloxy]-phenyl}-amide]",< 10 nM,< 10 nM
"CC(C)n1nc(C(=O)Nc2ccc(Oc3cc(-c4cn(C)cn4)cn4nccc34)c(F)c2)c(=O)n(-c2ccc(F)cc2)c1=O [Example 129, 4-(4-Fluoro-phenyl)-2-isopropyl-3,5-dioxo-2,3,4,5-tetrahydro-1,2,4-triazine-6-carboxylic acid{3-fluoro-4-[6-(1-methyl-1H-imidazol-4-yl)-pyrazolo[1,5-a]pyridin-4-yloxy]-phenyl}-amide]",< 10 nM,< 10 nM
"CCn1cc(C(=O)Nc2ccc(Oc3cc(NC(C)=O)cn4nccc34)c(F)c2)c(=O)n(-c2ccc(F)cc2)c1=O [Example 142, 1-Ethyl-3-(4-fluoro-phenyl)-2,4-dioxo-1,2,3,4-tetrahydro-pyrimidine-5-carboxylic acid[4-(6-acetylamino-pyrazolo[1,5-a]pyridin-4-yloxy)-3-fluoro-phenyl]-amide]",< 10 nM,< 10 nM
